Measured values as given in US8822503B2, “2-pyridone compounds” (Taisho Pharmaceutical Co., Ltd, priority 2009, dated 2014).
pEC50: −log10 of the molar value.

Each compound was assayed against T1, human liver GK (Homo sapiens, UniProt P35557) (assay: GK activation test). Settings: test compound concentration needed to activate 50% of maximum activation ability; 4 mM 14C-labeled glucose, 2 mM ATP, room temperature, 20 minutes.
T1 construct: GST (glutathione S-transferase) (N); made in house; host or cells: E. coli
T1 sequence (P35557 1-466 isoform P35557-2): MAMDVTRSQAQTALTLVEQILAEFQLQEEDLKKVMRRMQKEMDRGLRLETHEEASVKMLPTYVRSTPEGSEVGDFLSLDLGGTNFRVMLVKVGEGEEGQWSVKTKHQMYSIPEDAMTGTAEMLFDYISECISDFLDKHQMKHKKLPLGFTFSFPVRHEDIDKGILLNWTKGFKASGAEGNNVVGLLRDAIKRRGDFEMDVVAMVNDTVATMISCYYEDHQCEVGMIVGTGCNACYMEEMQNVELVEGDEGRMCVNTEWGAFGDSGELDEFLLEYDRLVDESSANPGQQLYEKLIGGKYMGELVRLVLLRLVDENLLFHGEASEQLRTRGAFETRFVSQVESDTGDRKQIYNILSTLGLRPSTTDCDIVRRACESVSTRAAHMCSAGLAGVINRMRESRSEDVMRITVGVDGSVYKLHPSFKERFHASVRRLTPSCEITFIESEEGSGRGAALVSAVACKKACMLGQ
Type: biochemical
How it was run: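 GST-tagged human liver GK from E. coli (0.24 μg/well) with 4 mM 14C-glucose, 2 mM ATP in Hepes-KOH pH 7.1, KCl, MgCl2, DTT, 1% DMSO, 20 min room temperature. Labeled glucose 6-phosphate captured on anion resin, eluted and counted. EC50 = concentration giving half of maximal activation.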

Q: `CC(C)Cn1cc(-c2ccc(/C(=C/[C@H]3CCC(=O)N3)c3ccc(C(C)(C)C)cc3)[nH]c2=O)cn1` [Example 4-182, 6-{(E)-1-(4-tert-Butylphenyl)-2-[(2R)-5-oxopyrrolidin-2-yl]ethenyl}-3-[1-(2-methylpropyl)-1H-pyrazol-4-yl]pyridin-2(1H)-one] was tested. Which pEC50 did it give?
A: 5.52 to 6.30

Q: How did the pEC50 turn out when `Cn1cc(-c2ccc(/C(=C/[C@H]3CCC(=O)N3)c3ccc(C(C)(C)C)cc3)[nH]c2=O)cn1` [Example 4-183, 6-{(E)-1-(4-tert-Butylphenyl)-2-[(2R)-5-oxopyrrolidin-2-yl]ethenyl}-3-(1-methyl-1H-pyrazol-4-yl)pyridin-2(1H)-one] was run?
A: 6.30 to 8.00

Q: `CC(C)(C)c1ccc(/C(=C\[C@H]2CCC(=O)N2)c2ccc(-c3cnoc3)c(=O)[nH]2)cc1` [Example 4-184, 6-{(E)-1-(4-tert-Butylphenyl)-2-[(2R)-5-oxopyrrolidin-2-yl]ethenyl}-3-(1,2-oxazol-4-yl)pyridin-2(1H)-one] was tested. Which pEC50 did it give?
A: 6.30 to 8.00

Q: With `CC(C)(C)c1ccc(/C(=C\[C@H]2CCC(=O)N2)c2ccc(Oc3ccccc3)c(=O)[nH]2)cc1` [Example 4-185, 6-{(E)-1-(4-tert-Butylphenyl)-2-[(2R)-5-oxopyrrolidin-2-yl]ethenyl}-3-phenoxypyridin-2(1H)-one] as the compound, how does the pEC50 read?
A: 6.30 to 8.00

Q: `CC(C)(C)c1ccc(/C(=C\[C@H]2CCC(=O)N2)c2cccc(=O)[nH]2)cc1` [Example 4-186, 6-{(E)-1-(4-tert-Butylphenyl)-2-[(2R)-5-oxopyrrolidin-2-yl]ethenyl}pyridin-2(1H)-one] was tested. Which pEC50 did it give?
A: 5.52 to 6.30

Q: `Cc1ccc(Oc2ccc(/C(=C/[C@H]3CCC(=O)N3)c3ccc(C(C)(C)C)cc3)[nH]c2=O)cc1` [Example 4-187, 6-{(E)-1-(4-tert-Butylphenyl)-2-[(2R)-5-oxopyrrolidin-2-yl]ethenyl}-3-(4-methylphenoxy)pyridin-2(1H)-one] was tested. Which pEC50 did it give?
A: 5.52 to 6.30

Q: How did the pEC50 turn out when `CC(C)(C)c1ccc(/C(=C\[C@H]2CCC(=O)N2)c2ccc(Oc3ccc(Cl)cc3)c(=O)[nH]2)cc1` [Example 4-188, 6-{(E)-1-(4-tert-Butylphenyl)-2-[(2R)-5-oxopyrrolidin-2-yl]ethenyl}-3-(4-chlorophenoxy)pyridin-2(1H)-one] was run?
A: 5.52 to 6.30

Q: With `CC(C)(C)c1ccc(/C(=C\[C@H]2CCC(=O)N2)c2ccc(Oc3ccc(C(F)(F)F)cc3)c(=O)[nH]2)cc1` [Example 4-189, 6-{(E)-1-(4-tert-Butylphenyl)-2-[(2R)-5-oxopyrrolidin-2-yl]ethenyl}-3-[4-(trifluoromethyl)phenoxy]pyridin-2(1H)-one] as the compound, how does the pEC50 read?
A: 5.52 to 6.30

Q: How did the pEC50 turn out when `CC(C)(C)c1ccc(/C(=C\[C@H]2CCC(=O)N2)c2ccc(CCCCO)c(=O)[nH]2)cc1` [Example 4-190, 6-{(E)-1-(4-tert-Butylphenyl)-2-[(2R)-5-oxopyrrolidin-2-yl]ethenyl}-3-(4-hydroxybutyl)pyridin-2(1H)-one] was run?
A: 6.30 to 8.00

Q: How did the pEC50 turn out when `CN(C)CCCCc1ccc(/C(=C/[C@H]2CCC(=O)N2)c2ccc(C(C)(C)C)cc2)[nH]c1=O` [Example 4-191, 6-{(E)-1-(4-tert-Butylphenyl)-2-[(2R)-5-oxopyrrolidin-2-yl]ethenyl}-3-[4-(dimethylamino)butyl]pyridin-2(1H)-one] was run?
A: 5.52 to 6.30

Q: How did the pEC50 turn out when `CCCc1ccc(/C(=C/[C@H]2CCC(=O)N2)c2ccc(C(C)(C)C)cc2)[nH]c1=O` [Example 4-192, 6-{(E)-1-(4-tert-Butylphenyl)-2-[(2R)-5-oxopyrrolidin-2-yl]ethenyl}-3-propylpyridin-2(1H)-one] was run?
A: 6.30 to 8.00

Q: How did the pEC50 turn out when `CCCCCc1ccc(/C(=C/[C@H]2CCC(=O)N2)c2ccc(C(C)(C)C)cc2)[nH]c1=O` [Example 4-193, 6-{(E)-1-(4-tert-Butylphenyl)-2-[(2R)-5-oxopyrrolidin-2-yl]ethenyl}-3-pentylpyridin-2(1H)-one] was run?
A: 6.30 to 8.00

Q: `CC(C)(C)c1ccc(/C(=C\[C@H]2CCC(=O)N2)c2ccc(C3CCCC3)c(=O)[nH]2)cc1` [Example 4-194, 6-{(E)-1-(4-tert-Butylphenyl)-2-[(2R)-5-oxopyrrolidin-2-yl]ethenyl}-3-cyclopentylpyridin-2(1H)-one] was tested. Which pEC50 did it give?
A: 6.30 to 8.00
